38 molecules from patent US20220168309A1 (F-STAR THERAPEUTICS, INC., priority 2019, published 2022) can be followed below.

What is called IC50 is the concentration needed to halve the response being measured.

Sequence of STING (Q86WV6 whole entry): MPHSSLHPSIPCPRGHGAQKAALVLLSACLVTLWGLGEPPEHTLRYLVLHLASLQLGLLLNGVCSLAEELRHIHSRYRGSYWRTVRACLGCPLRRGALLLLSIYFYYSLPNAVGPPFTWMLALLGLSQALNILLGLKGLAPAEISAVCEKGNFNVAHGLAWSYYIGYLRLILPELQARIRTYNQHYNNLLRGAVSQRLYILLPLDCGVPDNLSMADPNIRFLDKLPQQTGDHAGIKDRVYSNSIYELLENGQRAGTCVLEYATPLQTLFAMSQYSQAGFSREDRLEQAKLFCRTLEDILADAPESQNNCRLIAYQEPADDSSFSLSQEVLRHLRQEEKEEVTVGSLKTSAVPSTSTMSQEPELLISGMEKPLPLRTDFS

The assay deals with STING (Homo sapiens, UniProt Q86WV6). Put plainly: STING antagonist activity, cell-based ISG54 promoter-reporter luciferase measurement of IRF activity (THP-1 dual / RAW-ISG cells). The settings on record: Antagonist Activity of Exemplary Compounds; cell line and agonist not given; read-out: IC50. As to the method:
THP-1 dual cells (InvivoGen) were cultured under 5% CO2 at 37° C. in RPMI containing 10% fetal bovine serum (FBS), 100 IU mL-1 penicillin and 100 μg mL-1 streptomycin. RAW-ISG cells (InvivoGen) were cultured under 5% CO2 at 37° C. in DMEM containing 10% fetal bovine serum (FBS), 100 IU mL-1 penicillin and 100 μg mL-1 streptomycin. THP-1 dual cells were seeded into the 96 well assay plate on the day of assay whereas RAW cells were seeded into the 96 well assay plate 18 hours before the assay.
50,000 cells seeded in a 96-well flat bottom white assay plate were treated with different concentrations (10 uM to 0.01 uM) of compounds for 1 h followed by STING induction with either 30 nM SB 11285 or 10 ug/mL 2′-3′ cGAMP. The cells were then incubated for 20 hours @ 37° C. in CO2 incubator before measuring IRF activation by using Quanti-Luc (InvivoGen). The % inhibition was calculated as 100−{[(luminescence of COI treated well/luminescence of non-COI treated well)/100]×100}. IC50 was calculated by plotting in Xlfit.
50,000 cells seeded in a 96-well flat bottom white assay plate were treated with different concentrations (10 uM to 0.01 uM) of compounds for 1 h followed by STING induction with either 1 μM SB 11285 or 10 ug/mL 2′-3′ cGAMP. The cells were then incubated for 20 hours @ 37° C. in CO2 incubator before measuring IRF activation by using Quanti-Luc (InvivoGen). The % inhibition was calculated as 100−{[(luminescence of COI treated well/luminescence of non-COI treated well)/100]×100}. IC50 was calculated by plotting in Xlfit.
THP1-Dual-WT cells (InvivoGen) were plated into 96-well flat bottom plate at 5×10^4 cells/140 μL/well in triplicate. Cells were then treated with diluted antagonist compounds at 10 μL/well for 1 h, followed by treatment with compounds or 2′3′-cGAMP/lipo mixture for 18 h. The levels of IRF activity were determined using Quanti-luc (InvivoGen) and calculated against IRF activity in DMSO-treated cells. IC50 and CC50 values were calculated using Xlfit.
For `[2H]C([2H])([2H])OC(=O)CCCCCCCCCCCCCCCn1c(C)nc2nc(Cl)nc(S(=O)(=O)C(C)C)c21` [Compound 160, Methyl-d3 16-(2-chloro-6-(isopropylsulfonyl)-8-methyl-7H-purin-7-yl)hexadecanoate], the IC50 lay within 1 to 1000 nM. The result for `COC(=O)CCCCCCCCCCCCCCCn1cnc2nc(N)nc(Cl)c21` [Compound 5] reads 5000 to 10000 nM. The result for `COC(=O)CCCCCCCCCCCCCCCn1cnc2ncnc(S(C)(=O)=O)c21` [Compound 28, methyl 16-(6-(methylsulfonyl)-7H-purin-7-yl)hexadecanoate] reads 1 to 1000 nM. Consider `CCCCCCCCC(C(=O)OCC)n1cnc2c(Cl)nc(Cl)nc21` (centres unmarked) [Compound 18, ethyl 2-(2,6-dichloro-9H-purin-9-yl)decanoate], for which the IC50 is 1000 to 5000 nM. The result for `COC(=O)CCCCCO[C@@H]1CCN(CCCCCCn2c(C)nc3nc(Cl)nc(Cl)c32)C1` [Compound 130] reads 1 to 1000 nM; that for `Cc1nc2nc(Cl)nc(S(=O)(=O)C(C)C)c2n1CCCCCCCCCCN1CCOCC1` [Compound 137, 4-(10-(2-chloro-6-(isopropylsulfonyl)-8-methyl-7H-purin-7-yl)decyl)morpholine], 1000 to 5000 nM. In the case of `COC(=O)CCCCCCCCCCCCCCCn1c(C)nc2nc(Cl)nc(S(=O)(=O)C(C)C)c21` [Compound 74, methyl 16-(2-chloro-6-(isopropylsulfonyl)-8-methyl-7H-purin-7-yl)hexadecanoate] it was 1 to 1000 nM. As for `Clc1nc(Cl)c2c(ncn2CCCCCCCCCCCCn2cnc3nc(Cl)nc(Cl)c32)n1` [Compound 35, 1,12-bis(2,6-dichloro-7H-purin-7-yl) dodecane], the IC50 was in the range of 1000 to 5000 nM. With `Cc1nc2nc(Cl)nc(Cl)c2n1CCCCCCCCCCn1c(C)nc2nc(Cl)nc(Cl)c21` [Compound 61, 1,10-bis(2,6-dichloro-8-methyl-7H-purin-7-yl)decane], the IC50 was 1 to 1000 nM. In the case of `COC(=O)CCCCCCCCCCCCCCCn1ccc2nc(Cl)nc(Cl)c21` [Compound 4] it was > 20000 nM; in that of `Cc1nc2nc(Cl)nc(S(=O)(=O)C(C)C)c2n1CCCCCCCCCCCCCCCC(=O)OC[C@H]1COC(C)(C)O1` [Compound 132, (R)-(2,2-dimethyl-1,3-dioxolan-4-yl)methyl 16-(2-chloro-6-(isopropylsulfonyl)-8-methyl-7H-purin-7-yl)hexadecanoate], 1 to 1000 nM; in that of `Cc1nc2nc(Cl)nc(Cl)c2n1CCCCCCCCCCCCCCCC(=O)OCC(O)CO` (centres unmarked) [Compound 85, 2,3-dihydroxypropyl 16-(2,6-dichloro-8-methyl-7H-purin-7-yl)hexadecanoate], 1000 to 5000 nM. In the case of `Cc1nc2nc(Cl)nc(S(=O)(=O)C(C)C)c2n1CCCCCCCCCCCCCCCC(=O)OC(C)C` [Compound 96, isopropyl 16-(2-chloro-6-(isopropylsulfonyl)-8-methyl-7H-purin-7-yl)hexadecanoate], the IC50 is 1 to 1000 nM. In the case of `COC(=O)CCCCCCN(C)CCCCCCCCn1c(C)nc2nc(Cl)nc(S(=O)(=O)C(C)C)c21` [Compound 152, Methyl 7-((8-(2-chloro-6-(isopropylsulfonyl)-8-methyl-7H-purin-7-yl)octyl)(methyl)-amino)heptanoate] it was 1000 to 5000 nM; in that of `Cc1nc2nc(Cl)nc(Cl)c2n1CCCCCCCCCCCCCCCC(=O)OC[C@@H](O)CO` [Compound 107, (S)-2,3-dihydroxypropyl 16-(2,6-dichloro-8-methyl-7H-purin-7-yl)hexadecanoate], 1000 to 5000 nM; in that of `Cc1nc2nc(Cl)nc(S(=O)(=O)C(C)C)c2n1CCCCCCCCCCCCCCCC(=O)OCC1CC1` [Compound 158, Cyclopropylmethyl 16-(2-chloro-6-(isopropylsulfonyl)-8-methyl-7H-purin-7-yl)hexadecanoate], 1 to 1000 nM. The result for `CNc1nc(Cl)nc2ncn(CCCCCCCCCCCCCCCC(=O)OC)c12` [Compound 23, methyl 16-(2-chloro-6-(methylamino)-7H-purin-7-yl)hexadecanoate] reads > 20000 nM.

With `CCCCCCCCCCCCCCCCn1cnc2nc(Cl)nc(Cl)c21` [Compound 26, 2,6-dichloro-7-hexadecyl-7H-purine], the half-maximal inhibitory concentration (IC50) is 1 to 1000 nM.

As for `OCCCCCCn1cnc2nc(Cl)nc(Cl)c21` [Compound 45, 6-(2,6-dichloro-7H-purin-7-yl)hexan-1-ol], the IC50 fell in the range of 1000 to 5000 nM.

Take `COC(=O)CCCCCCCCCCCCCCCn1c(C)nc2nc(Cl)nc(Cl)c21` [Compound 29, methyl 16-(2,6-dichloro-8-methyl-7H-purin-7-yl)hexadecanoate]: the IC50 lay within 1 to 1000 nM. Consider `COC(=O)CCCCCCCCCCCCCCn1c(C)nc2nc(Cl)nc(Cl)c21` [Compound 161, Methyl 15-(2,6-dichloro-8-methyl-7H-purin-7-yl)pentadecanoate], for which the IC50 lay within 1 to 1000 nM. The result for `COC(=O)CCCn1c(C)nc2nc(Cl)nc(Cl)c21` [Compound 116, methyl 4-(2,6-dichloro-8-methyl-7H-purin-7-yl)butanoate] reads 5000 to 10000 nM; that for `OCCCCCCCCCCn1cnc2nc(Cl)nc(Cl)c21` [Compound 40, 10-(2,6-dichloro-7H-purin-7-yl)decan-1-ol], 1 to 1000 nM. The result for `COC(=O)CCCCCCCCCCCCCCCn1c(O)nc2nc(Cl)nc(Cl)c21` [Compound 52, methyl 16-(2,6-dichloro-8-oxo-8,9-dihydro-7H-purin-7-yl)hexadecanoate] reads > 20000 nM; that for `COC(=O)CCCCCCNCCCCCCCCn1c(C)nc2nc(Cl)nc(S(=O)(=O)C(C)C)c21` [Compound 168, methyl 7-((8-(2-chloro-6-(isopropylsulfonyl)-8-methyl-7H-purin-7-yl)octyl)amino)heptanoate], 1 to 1000 nM; that for `COC(=O)CCCn1cnc2nc(Cl)nc(Cl)c21` [Compound 37, methyl 4-(2,6-dichloro-7H-purin-7-yl)butanoate], 5000 to 10000 nM. The result for `Cc1nc2nc(Cl)nc(S(=O)(=O)C(C)C)c2n1CCCCCCCCCCCCCCCc1nnnn1C` [Compound 140, 2-chloro-6-(isopropylsulfonyl)-8-methyl-7-(15-(1-methyl-1H-tetrazol-5-yl)pentadecyl)-7H-purine] reads 1 to 1000 nM; that for `CC(=O)OCCCCCn1cnc2nc(Cl)nc(Cl)c21` [Compound 33, 5-(2,6-dichloro-7H-purin-7-yl)pentyl acetate], 1000 to 5000 nM. `Cc1nc2c(Cl)nc(Cl)nc2n1C` [Compound 83, 2,6-dichloro-8,9-dimethyl-9H-purine]: the 50% inhibitory concentration (IC50) is > 20000 nM. Consider `Cc1nc2nc(Cl)nc(Cl)c2n1CCCCCCCCCCCCCCCC(=O)OC(C)C` [Compound 79, isopropyl 16-(2,6-dichloro-8-methyl-7H-purin-7-yl)hexadecanoate], for which the IC50 was 1 to 1000 nM. In the case of `COC(=O)CCCCCCCCCCCCCCCn1c(C#CC2CC2)nc2nc(Cl)nc(Cl)c21` [Compound 70, methyl 16-(2,6-dichloro-8-(cyclopropylethynyl)-7H-purin-7-yl)hexadecanoate] it was 1000 to 5000 nM. Regarding `Cc1nc2nc(Cl)nc(Cl)c2n1CCCCCCCCCCCCn1c(C)nc2nc(Cl)nc(Cl)c21` [Compound 59, 1,12-bis(2,6-dichloro-8-methyl-7H-purin-7-yl)dodecane], the IC50 lay in the range of 1 to 1000 nM. The result for `O=C(O)CCCCCCCCCCCCCCCn1cnc2nc(Cl)nc(O)c21` [Compound 10, 16-(2-chloro-6-hydroxy-7H-purin-7-yl)hexadecanoic acid] reads > 20000 nM. In the case of `Cc1nc2nc(Cl)nc(Cl)c2n1CCCCCCCCCCN1CCN(C)CC1` [Compound 113, 2,6-dichloro-8-methyl-7-(10-(4-methylpiperazin-1-yl)decyl)-7H-purine] it was 1000 to 5000 nM; in that of `COC(=O)CCCn1c(C)nc2nc(Cl)nc(S(=O)(=O)C(C)C)c21` [Compound 118, methyl 4-(2-chloro-6-(isopropylsulfonyl)-8-methyl-7H-purin-7-yl)butanoate], 1000 to 5000 nM.

`COC(=O)CCCCCCCCCCCCCCCn1cnc2c(Cl)ccnc21` [Compound 42, methyl 16-(7-chloro-3H-imidazo[4,5-b]pyridin-3-yl) hexadecanoate]: the IC50 is > 20000 nM. For the molecule `COC(=O)CCCCCCCCCn1c(C)nc2nc(Cl)nc(Cl)c21` [Compound 123, Methyl 10-(2,6-dichloro-8-methyl-7H-purin-7-yl)decanoate], the IC50 was in the range of 1000 to 5000 nM.

As to `COC(=O)CCCCCCCCCCCCCCCn1c(CO)nc2nc(Cl)nc(S(=O)(=O)C(C)C)c21` [Compound 114, Methyl 16-(2-chloro-8-(hydroxymethyl)-6-(isopropylsulfonyl)-7H-purin-7-yl)hexadecanoate], the IC50 fell in the range of 1 to 1000 nM.
